Target: T1, AMPA receptor (human GluR1 flip/stargazin expressed in CHO-K1 cells) (Homo sapiens, UniProt P42261)
T1 construct: expressed in transfected cells; host or cells: CHO-K1
Assay: AMPA receptor function enhancing activity using calcium influx as index
Format: cell-based
Conditions: 100% = 3 mM glutamic acid + 300 μM cyclothiazide, 0% = 3 mM glutamic acid only
Excerpt: Human GluR1 flip cDNA was amplified by PCR using forward primer […] (SEQ ID NO: 1) and reverse primer […] (SEQ ID NO: 2) artificially synthesized using human brain-derived cDNA (BD Bio science) as a template. The amplified product was digested with restriction enzymes EcoRI, NotI (TAKARA SHUZO CO. LTD.), and incorporated into the same site of pcDNA3.1(+) (Invitrogen) to construct pcDNA3.1(+)/human GluR1 flip gene. Human stargazin cDNA was amplified by PCR using forward primer […] (SEQ ID NO: 3) and reverse primer […] (SEQ ID NO: 4) artificially synthesized using human hippocampus cDNA as a template. The amplified product was digested with restriction enzymes XhoI, BamHI (TAKARA SHUZO CO. LTD.), and incorporated into the same site of pcDNA3.1(−) (Invitrogen) to construct pcDNA3.1 Zeo(−)/human stargazin gene.
CHO-K1 cells passaged in a culture medium (Ham's F12 medium (Invitrogen) added with 10% inactivated fetal bovine serum (Morgate) and penicillin, streptomycin (Invitrogen)) were detached with 0.05% trypsin, 0.53 mM EDTA (Invitrogen) diluted with D-PBS(−). The detached cells were suspended in a culture medium, and recovered by a centrifugation operation at 1,000 rpm. The recovered cells were suspended again in D-PBS(−), and added to a 0.4 cm electroporation cuvette (BioRad). pcDNA3.1(+)/human GluR1 flip gene (5 μg) and pcDNA3.1 Zeo(−)/human stargazin gene (15 μg) were added, and the mixture was introduced into CHO-K1 cells using Gene Pulser II (BioRad) under the conditions of 950 μFd, […]. The introduced cells were cultured overnight in a culture medium and, the next day, plated in a 96 well plate at 250 cells/well using a selection medium (culture medium added with Zeocin (Invitrogen) to 250 μg/mL). Clones showing drug resistance were selected, and GluR1 flip/stargazin expressing clones were selected by an assay method using calcium influx as an index as shown below.
CHO-K1/GluR1 flip/stargazin expressing cells were plated on a 96 well black transparent bottom plate (Costar) at 2×10^4 cells/well, and cultured in a 37° C., CO2 incubator (SANYO Electric Co., Ltd.) for 2 days. The medium in the cell plate was removed, and assay buffer A (D-MEM (Invitrogen), 0.1% BSA (Serogical Protein), 20 mM HEPES (Invitrogen)) was added at 50 μL/well. A calcium indicator (Calcium 4 Assay Kit, Invitrogen) added with 2.5 mM probenecid (Invitrogen) was added at 50 μL/well and the well was left standing in 37° C., CO2 incubator for 1 hr. The cell plate was set in CellLux (PerkinElmer), a mixture (50 μL) of 9 mM glutamic acid diluted with assay buffer B (HBSS (Invitrogen), 0.1% BSA, 20 mM HEPES) (final concentration 3 mM) and a test compound (test compound concentration 30 μM) was added, and the amount of change in fluorescence level in 3 min was measured. In the definition here, the amount of change in fluorescence level of well added with glutamic acid at final concentration 3 mM and 300 μM cyclothiazide (TOCRIS) is 100%, the amount of change in fluorescence level of well added only with glutamic acid at final concentration 3 mM is 0%, and the compound activity was calculated according to the following formula. activity(%)=(X−C)/(T−C)×100 T: amount of change in fluorescence level of well added with glutamic acid at final concentration 3 mM and 300 μM cyclothiazide C: amount of change in fluorescence level of well added only with glutamic acid at final concentration 3 mM X: amount of change in fluorescence level of well added with test compound

[1] = test compound 30 μM with glutamic acid final 3 mM, change in fluorescence in 3 min
[2] = test compound 30 μM with 3 mM glutamic acid, change in fluorescence level in 3 min

T1 sequence (P42261 19-906 isoform P42261-2 limits assumed): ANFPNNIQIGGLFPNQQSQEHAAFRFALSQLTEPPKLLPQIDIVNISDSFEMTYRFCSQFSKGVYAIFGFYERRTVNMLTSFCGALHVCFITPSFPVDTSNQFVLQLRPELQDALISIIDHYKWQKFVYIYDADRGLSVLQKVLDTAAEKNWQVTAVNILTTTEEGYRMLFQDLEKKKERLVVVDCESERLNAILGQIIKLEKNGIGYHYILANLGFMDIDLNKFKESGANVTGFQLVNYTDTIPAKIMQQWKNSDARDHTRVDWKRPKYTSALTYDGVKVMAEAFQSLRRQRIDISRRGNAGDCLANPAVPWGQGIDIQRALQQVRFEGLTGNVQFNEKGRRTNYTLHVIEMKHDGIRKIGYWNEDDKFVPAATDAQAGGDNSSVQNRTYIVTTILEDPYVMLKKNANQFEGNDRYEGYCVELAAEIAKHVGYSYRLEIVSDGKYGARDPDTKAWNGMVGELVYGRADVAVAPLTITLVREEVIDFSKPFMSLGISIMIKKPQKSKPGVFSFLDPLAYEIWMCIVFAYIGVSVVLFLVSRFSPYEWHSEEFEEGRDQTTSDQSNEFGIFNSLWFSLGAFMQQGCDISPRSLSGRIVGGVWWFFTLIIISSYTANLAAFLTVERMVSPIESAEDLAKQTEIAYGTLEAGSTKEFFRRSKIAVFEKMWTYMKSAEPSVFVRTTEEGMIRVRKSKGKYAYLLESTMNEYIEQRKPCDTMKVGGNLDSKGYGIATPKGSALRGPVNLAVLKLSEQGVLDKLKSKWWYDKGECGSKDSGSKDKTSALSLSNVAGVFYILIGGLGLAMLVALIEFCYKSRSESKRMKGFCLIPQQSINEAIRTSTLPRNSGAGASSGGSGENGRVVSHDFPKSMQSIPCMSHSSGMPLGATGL
T1 sequence (Q9Y698 whole entry partner): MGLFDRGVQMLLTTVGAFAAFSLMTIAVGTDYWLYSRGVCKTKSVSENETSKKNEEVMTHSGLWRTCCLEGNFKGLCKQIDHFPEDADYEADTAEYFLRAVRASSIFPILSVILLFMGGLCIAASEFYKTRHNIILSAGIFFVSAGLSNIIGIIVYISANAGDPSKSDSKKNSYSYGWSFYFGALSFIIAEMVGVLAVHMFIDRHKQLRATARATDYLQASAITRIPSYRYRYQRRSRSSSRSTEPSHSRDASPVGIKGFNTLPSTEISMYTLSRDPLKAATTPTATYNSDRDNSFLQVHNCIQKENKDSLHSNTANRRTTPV

| Structure (SMILES) | activity (%) [1] [%] | activity (%) [2] [%] |
| --- | --- | --- |
| Cc1cc(C2CCCN3CCS(=O)(=O)N=C23)ccc1-c1ccccc1 (stereo not shown) [Example 102, 9-(2-methylbiphenyl-4-yl)-3,4,6,7,8,9-hexahydropyrido[2,1-c][1,2,4]thiadiazine 2,2-dioxide] | 71 |  |
| COc1cccc(Oc2ccc(C3=CC=CN4CCS(=O)(=O)N=C34)cc2)c1 [Example 90, 9-[4-(3-methoxyphenoxy)phenyl]-3,4-dihydropyrido[2,1-c][1,2,4]thiadiazine 2,2-dioxide] | 78 |  |
| O=S1(=O)CCN2C=CC=C(c3ccc(O)cc3)C2=N1 [Example 87, 4-(2,2-dioxido-3,4-dihydropyrido[2,1-c][1,2,4]thiadiazin-9-yl)phenol] | 51 |  |
| Cc1cc(C(F)(F)F)ccc1Oc1ccc(C2CCCN3CCS(=O)(=O)N=C23)cc1 (stereo not shown) [Example 122, 9-{4-[2-methyl-4-(trifluoromethyl)phenoxy]phenyl}-3,4,6,7,8,9-hexahydropyrido[2,1-c][1,2,4]thiadiazine 2,2-dioxide] | 58 |  |
| O=S1(=O)CCN2C=CC=C(c3ccc4ccccc4c3)C2=N1 [Example 46, 9-naphthalen-2-yl-3,4-dihydropyrido[2,1-c][1,2,4]thiadiazine 2,2-dioxide] | 80 |  |
| CC(C)(C)Oc1ccc(C2=CC=CN3CCS(=O)(=O)N=C23)cc1 [Example 411, 9-(4-tert-butoxyphenyl)-3,4-dihydropyrido[2,1-c][1,2,4]thiadiazine 2,2-dioxide] | 86 |  |
| COc1ccc2cc(C3CCCN4CCS(=O)(=O)N=C34)ccc2c1 (stereo not shown) [Example 129, 9-(6-methoxynaphthalen-2-yl)-3,4,6,7,8,9-hexahydropyrido[2,1-c][1,2,4]thiadiazine 2,2-dioxide] | 100 |  |
| CCC(CC)Oc1ccc(C2=CC=CN3CCS(=O)(=O)N=C23)cc1 [Example 72, 9-[4-(1-ethylpropoxy)phenyl]-3,4-dihydropyrido[2,1-c][1,2,4]thiadiazine 2,2-dioxide] | 80 |  |
| O=S1(=O)CCN2CCC[C@@H](c3ccc(Oc4cc(C(F)(F)F)ccc4Cl)cc3)C2=N1 [Example 160, (9S)-9-{4-[2-chloro-5-(trifluoromethyl)phenoxy]phenyl}-3,4,6,7,8,9-hexahydropyrido[2,1-c][1,2,4]thiadiazine 2,2-dioxide] |  | 78 |
| Cc1cccc(Oc2ccc(C3=CC=CN4CCS(=O)(=O)N=C34)cc2)c1 [Example 117, 9-[4-(3-methylphenoxy)phenyl]-3,4-dihydropyrido[2,1-c][1,2,4]thiadiazine 2,2-dioxide] | 90 |  |
| CC(C)c1ccc(CCC2=CC=CN3CCS(=O)(=O)N=C23)cc1 [Example 25, 9-{2-[4-(1-methylethyl)phenyl]ethyl}-3,4-dihydropyrido[2,1-c][1,2,4]thiadiazine 2,2-dioxide] | 98 |  |
| O=S1(=O)CCN2CCCC(c3ccc(-c4ccccc4)s3)C2=N1 (stereo not shown) [Example 57, 9-(5-phenylthiophen-2-yl)-3,4,6,7,8,9-hexahydropyrido[2,1-c][1,2,4]thiadiazine 2,2-dioxide] | 86 |  |
| CC1CC(c2ccc(Oc3ccccc3)cc2)C2=NS(=O)(=O)CCN2C1 (stereo not shown) [Example 99, 7-methyl-9-(4-phenoxyphenyl)-3,4,6,7,8,9-hexahydropyrido[2,1-c][1,2,4]thiadiazine 2,2-dioxide] | 73 |  |
| O=S1(=O)CCN2C=C(F)C=C(c3ccc(OC4CCCCC4)cc3)C2=N1 [Example 89, 9-[4-(cyclohexyloxy)phenyl]-7-fluoro-3,4-dihydropyrido[2,1-c][1,2,4]thiadiazine 2,2-dioxide] | 85 |  |
| O=S1(=O)CCN2CCCC(c3ccc(Oc4ccc5c(c4)OCC5)cc3)C2=N1 (stereo not shown) [Example 141, 9-[4-(2,3-dihydro-1-benzofuran-6-yloxy)phenyl]-3,4,6,7,8,9-hexahydropyrido[2,1-c][1,2,4]thiadiazine 2,2-dioxide] | 80 |  |
| CC(C)c1ccc(COC2=CC=CN3CCS(=O)(=O)N=C23)cc1 [Example 52, 9-{[4-(1-methylethyl)benzyl]oxy}-3,4-dihydropyrido[2,1-c][1,2,4]thiadiazine 2,2-dioxide] | 67 |  |
| O=S1(=O)CCN2C=CC=C(c3ccc(N4CCCC4)cc3)C2=N1 [Example 80, 9-(4-pyrrolidin-1-ylphenyl)-3,4-dihydropyrido[2,1-c][1,2,4]thiadiazine 2,2-dioxide] | 88 |  |

Now from value to molecule:

| activity (%) [1] [%] | activity (%) [2] [%] | Structure (SMILES) |
| --- | --- | --- |
|  | 66 | O=S1(=O)CCN2C=CC=C(Oc3ccc4c(c3)CCCC4)C2=N1 [Example 237, 9-(5,6,7,8-tetrahydronaphthalen-2-yloxy)-3,4-dihydropyrido[2,1-c][1,2,4]thiadiazine 2,2-dioxide] |
|  | 84 | O=S1(=O)CCN2C=CC=C(c3ccc(Oc4ccnc(C(F)(F)F)c4)cc3)C2=N1 [Example 257, 9-(4-{[2-(trifluoromethyl)pyridin-4-yl]oxy}phenyl)-3,4-dihydropyrido[2,1-c][1,2,4]thiadiazine 2,2-dioxide] |
| 69 |  | COc1ccc2ccc(OC3CCCN4CCS(=O)(=O)N=C34)cc2c1 (stereo not shown) [Example 462, 9-[(7-methoxynaphthalen-2-yl)oxy]-3,4,6,7,8,9-hexahydropyrido[2,1-c][1,2,4]thiadiazine 2,2-dioxide] |
|  | 78 | O=S1(=O)CCN2CCC[C@@H](c3ccc(Oc4ccc(Br)cc4)cc3)C2=N1 [Example 228, (9S)-9-[4-(4-bromophenoxy)phenyl]-3,4,6,7,8,9-hexahydropyrido[2,1-c][1,2,4]thiadiazine 2,2-dioxide] |
|  | 74 | O=S1(=O)CCN2CCCC(c3ccc(C(F)(F)c4ccccc4)cc3)C2=N1 (stereo not shown) [Example 163, 9-{4-[difluoro(phenyl)methyl]phenyl}-3,4,6,7,8,9-hexahydropyrido[2,1-c][1,2,4]thiadiazine 2,2-dioxide] |
|  | 79 | CC(F)(F)c1ccc(C2CCCN3CCS(=O)(=O)N=C23)cc1 (stereo not shown) [Example 174, 9-[4-(1,1-difluoroethyl)phenyl]-3,4,6,7,8,9-hexahydropyrido[2,1-c][1,2,4]thiadiazine 2,2-dioxide] |
|  | 85 | O=C1CCCCC1Oc1ccc(C2=CC=CN3CCS(=O)(=O)N=C23)cc1 (stereo not shown) [Example 274, 2-[4-(2,2-dioxido-3,4-dihydropyrido[2,1-c][1,2,4]thiadiazin-9-yl)phenoxy]cyclohexanone] |
| 99 |  | O=C(c1ccccc1)c1ccc(C2=CC=CN3CCS(=O)(=O)N=C23)cc1 [Example 298, [4-(2,2-dioxido-3,4-dihydropyrido[2,1-c][1,2,4]thiadiazin-9-yl)phenyl](phenyl)methanone] |
| 74 |  | CCCOc1ccc(C2CCCN3CCS(=O)(=O)N=C23)cc1F (stereo not shown) [Example 350, 9-(3-fluoro-4-propoxyphenyl)-3,4,6,7,8,9-hexahydropyrido[2,1-c][1,2,4]thiadiazine 2,2-dioxide] |
| 63 |  | O=S1(=O)CCN2CCNC(c3ccc(-c4ccccc4)c(F)c3)C2=N1 (stereo not shown) [Example 345, 9-(2-fluorobiphenyl-4-yl)-3,4,6,7,8,9-hexahydropyrazino[2,1-c][1,2,4]thiadiazine 2,2-dioxide] |
| 64 |  | O=S1(=O)CCN2CCCC(c3ccc(C4(c5ccccc5)CCC4)cc3)C2=N1 (stereo not shown) [Example 321, 9-[4-(1-phenylcyclobutyl)phenyl]-3,4,6,7,8,9-hexahydropyrido[2,1-c][1,2,4]thiadiazine 2,2-dioxide] |

Source: patent publication US8916551B2, “Heterocyclic compound and use thereof” (Takeda Pharmaceutical Company Limited, priority 2010, dated 2014)
